According to ChEMBL document CHEMBL1201862, “PubChem BioAssay data set” (2004):
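Dose response: 5 concentrations. Exposure: 48 h. Format: 96-well plates. Endpoint: linear interpolation; highest concentration if not reached. Here, GI50 denotes the concentration required for 50% inhibition of growth.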 Calls of active or inactive are those of the source. No stated cut-off is given here; in the data, active = GI50 up to about 1.1 µM and inactive = higher.

Legend:
Experiment in all cases: growth of human tumour cells (NCI), 48 h
786-0 = test system: 786-0
OVCAR-3 = test system: OVCAR-3
PC-3 = test system: PC-3
SNB-19 = test system: SNB-19
HT-29 = test system: HT-29
Hs-578T = test system: Hs-578T
SNB-75 = test system: SNB-75
ACHN = test system: ACHN
COLO 205 = test system: COLO 205
OVCAR-5 = test system: OVCAR-5
MCF7 = test system: MCF7
MDA-MB-231 = test system: MDA-MB-231
A549 = test system: A549
SF-295 = test system: SF-295
NCI-H460 = test system: NCI-H460
CCRF-CEM = test system: CCRF-CEM
HOP-62 = test system: HOP-62
UO-31 = test system: UO-31
EKVX = test system: EKVX
SK-MEL-2 = test system: SK-MEL-2
HOP-92 = test system: HOP-92
MDA-MB-435 = test system: MDA-MB-435
SK-MEL-5 = test system: SK-MEL-5
SF-268 = test system: SF-268
IGROV-1 = test system: IGROV-1
NCI/ADR-RES = test system: NCI/ADR-RES
SK-MEL-28 = test system: SK-MEL-28
KM12 = test system: KM12
A498 = test system: A498
T47D = test system: T47D
SK-OV-3 = test system: SK-OV-3
HL-60 = test system: HL-60
NCI-H23 = test system: NCI-H23
CAKI-1 = test system: CAKI-1
MDA-N = test system: MDA-N
K562 = test system: K562
LOX IMVI = test system: LOX IMVI
Malme-3M = test system: Malme-3M
U-251 = test system: U-251
HCT-116 = test system: HCT-116
HCC 2998 = test system: HCC 2998
SN12C = test system: SN12C
SW-620 = test system: SW-620
OVCAR-4 = test system: OVCAR-4
DU-145 = test system: DU-145
SR = test system: SR
NCI-H522 = test system: NCI-H522
TK-10 = test system: TK-10
RPMI-8226 = test system: RPMI-8226
SF-539 = test system: SF-539
RXF 393 = test system: RXF 393
OVCAR-8 = test system: OVCAR-8
NCI-H226 = test system: NCI-H226
UACC-257 = test system: UACC-257
M14 = test system: M14
HCT-15 = test system: HCT-15
MOLT-4 = test system: MOLT-4

Q: Which results are given for `O=C(O)c1ccccc1CC(Cc1ccc2c(c1)CCC2)C(=O)O` (configuration not stated)?
A: GI50 (786-0): > 100 µM (inactive); GI50 (OVCAR-3): > 100 µM (inactive); GI50 (PC-3): > 100 µM (inactive); GI50 (SNB-19): > 100 µM (inactive); GI50 (HT-29): > 100 µM (inactive); GI50 (Hs-578T): > 100 µM (inactive); GI50 (SNB-75): > 100 µM (inactive); GI50 (ACHN): > 100 µM (inactive); GI50 (COLO 205): > 100 µM (inactive); GI50 (OVCAR-5): > 100 µM (inactive); GI50 (MCF7): > 100 µM (inactive); GI50 (MDA-MB-231): > 100 µM (inactive); GI50 (A549): > 100 µM (inactive); GI50 (SF-295): > 100 µM (inactive); GI50 (NCI-H460): > 100 µM (inactive); GI50 (CCRF-CEM): > 100 µM (inactive); GI50 (HOP-62): > 100 µM (inactive); GI50 (UO-31): > 100 µM (inactive); GI50 (EKVX): > 100 µM (inactive); GI50 (SK-MEL-2): > 100 µM (inactive); GI50 (HOP-92): > 100 µM (inactive); GI50 (MDA-MB-435): > 100 µM (inactive); GI50 (SK-MEL-5): > 100 µM (inactive); GI50 (SF-268): > 100 µM (inactive); GI50 (IGROV-1): > 100 µM (inactive); GI50 (NCI/ADR-RES): > 100 µM (inactive); GI50 (SK-MEL-28): > 100 µM (inactive); GI50 (KM12): > 100 µM (inactive); GI50 (A498): > 100 µM (inactive); GI50 (T47D): > 100 µM (inactive); GI50 (SK-OV-3): > 100 µM (inactive); GI50 (HL-60): > 100 µM (inactive); GI50 (NCI-H23): > 100 µM (inactive); GI50 (CAKI-1): > 100 µM (inactive); GI50 (MDA-N): > 100 µM (inactive); GI50 (K562): > 100 µM (inactive); GI50 (LOX IMVI): > 100 µM (inactive); GI50 (Malme-3M): > 100 µM (inactive); GI50 (U-251): > 100 µM (inactive); GI50 (HCT-116): > 100 µM (inactive); GI50 (HCC 2998): > 100 µM (inactive); GI50 (SN12C): > 100 µM (inactive); GI50 (SW-620): > 100 µM (inactive); GI50 (OVCAR-4): > 100 µM (inactive); GI50 (DU-145): > 100 µM (inactive); GI50 (SR): 8.07 µM (inactive); GI50 (NCI-H522): > 100 µM (inactive); GI50 (TK-10): > 100 µM (inactive); GI50 (RPMI-8226): > 100 µM (inactive); GI50 (SF-539): > 100 µM (inactive); GI50 (RXF 393): > 100 µM (inactive); GI50 (OVCAR-8): > 100 µM (inactive); GI50 (NCI-H226): > 100 µM (inactive); GI50 (UACC-257): > 100 µM (inactive); GI50 (M14): > 100 µM (inactive); GI50 (HCT-15): > 100 µM; GI50 (MOLT-4): > 100 µM (inactive)
